In brackets after ≈: the same amount, converted by molar mass.
Legend:
Aspergillus flavus [1] = test: Antimicrobial activity against Aspergillus flavus NCIM 524 at 100 ug/mL incubated for 48 hrs by agar disc diffusion method; type: functional; conditions: NCIM 524, 48 h, read-out: IZ
Escherichia coli [2] = test: Antimicrobial activity against Escherichia coli NCIM 2574 by broth dilution method; type: functional
Staphylococcus aureus [3] = test: Antimicrobial activity against Staphylococcus aureus NCIM 5021 at 100 ug/mL incubated for 24 hrs by agar disc diffusion method; type: functional; conditions: NCIM 5021, 24 h, read-out: IZ
[4] = tested on: Radical scavenging activity; test: Antioxidant activity assessed as DPPH free radical scavenging activity by spectrophotometry; type: functional
Staphylococcus aureus [5] = test: Antimicrobial activity against Staphylococcus aureus NCIM 5021 by broth dilution method; type: functional
Mus musculus [6] = test: Antidepressant activity in Swiss albino mouse assessed as mean immobility time measured during 6 mins period at 20 mg/kg, po administered 30 mins before test by tail suspension test (reference value: 185.7 +/- 5.33 secs); type: functional
Pseudomonas aeruginosa [7] = test: Antimicrobial activity against Pseudomonas aeruginosa NCIM 5029 by broth dilution method; type: functional
Candida albicans [8] = test: Antimicrobial activity against Candida albicans NCIM 3471 at 100 ug/mL incubated for 48 hrs by agar disc diffusion method; type: functional; conditions: NCIM 3471, 48 h, read-out: IZ
Bacillus subtilis [9] = test: Antimicrobial activity against Bacillus subtilis NCIM 2999 at 100 ug/mL incubated for 24 hrs by agar disc diffusion method; type: functional; conditions: NCIM 2999, 24 h, read-out: IZ
Pseudomonas aeruginosa [10] = test: Antimicrobial activity against Pseudomonas aeruginosa NCIM 5029 at 100 ug/mL incubated for 24 hrs by agar disc diffusion method; type: functional; conditions: NCIM 5029, 24 h, read-out: IZ
[11] = Antioxidant activity assessed as superoxide scavenging activity using xanthine-xanthine oxidase system by NBT dye reduction based assay; type: functional
Candida albicans [12] = test: Antimicrobial activity against Candida albicans NCIM 3471 by broth dilution method; type: functional
[13] = target: T1, Amine oxidase [flavin-containing] A (Mus musculus, UniProt Q64133); test: Inhibition of MAOA in mouse brain mitochondrial fraction assessed as enzyme activity per mg of protein using 5-HT substrate incubated for 20 mins by UV-spectrophotometry; type: tissue-based
T1 sequence (Q64133 whole entry): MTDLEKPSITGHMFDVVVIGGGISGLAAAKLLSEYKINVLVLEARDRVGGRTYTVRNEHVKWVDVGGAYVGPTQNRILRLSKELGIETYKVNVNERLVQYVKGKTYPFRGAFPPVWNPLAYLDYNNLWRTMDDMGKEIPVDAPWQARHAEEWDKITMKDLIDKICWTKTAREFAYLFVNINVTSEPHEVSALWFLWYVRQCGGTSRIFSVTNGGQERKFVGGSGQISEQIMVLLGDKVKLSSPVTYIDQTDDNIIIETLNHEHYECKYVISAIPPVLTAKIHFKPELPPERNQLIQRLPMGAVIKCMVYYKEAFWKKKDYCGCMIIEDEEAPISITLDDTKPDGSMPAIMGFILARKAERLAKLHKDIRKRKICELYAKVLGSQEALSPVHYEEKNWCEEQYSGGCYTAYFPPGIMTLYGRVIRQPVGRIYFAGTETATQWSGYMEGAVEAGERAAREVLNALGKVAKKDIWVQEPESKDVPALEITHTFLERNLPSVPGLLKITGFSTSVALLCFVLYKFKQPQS

Mus musculus [14] = test: Antidepressant activity in Swiss albino mouse assessed as mean immobility time measured during last 4 mins of single 6 mins test session at 20 mg/kg, po by forced swim test (reference value: 75.33 +/- 3.35 secs); type: functional
Escherichia coli [15] = test: Antimicrobial activity against Escherichia coli NCIM 2574 at 100 ug/mL incubated for 24 hrs by agar disc diffusion method; type: functional; conditions: NCIM 2574, 24 h, read-out: IZ
[16] = target: T2, Amine oxidase [flavin-containing] B (Mus musculus, UniProt Q8BW75); test: Inhibition of MAOB in mouse brain mitochondrial fraction assessed as enzyme activity per mg of protein using beta-PEA substrate incubated for 20 mins by UV-spectrophotometry; type: tissue-based
T2 sequence (Q8BW75 whole entry): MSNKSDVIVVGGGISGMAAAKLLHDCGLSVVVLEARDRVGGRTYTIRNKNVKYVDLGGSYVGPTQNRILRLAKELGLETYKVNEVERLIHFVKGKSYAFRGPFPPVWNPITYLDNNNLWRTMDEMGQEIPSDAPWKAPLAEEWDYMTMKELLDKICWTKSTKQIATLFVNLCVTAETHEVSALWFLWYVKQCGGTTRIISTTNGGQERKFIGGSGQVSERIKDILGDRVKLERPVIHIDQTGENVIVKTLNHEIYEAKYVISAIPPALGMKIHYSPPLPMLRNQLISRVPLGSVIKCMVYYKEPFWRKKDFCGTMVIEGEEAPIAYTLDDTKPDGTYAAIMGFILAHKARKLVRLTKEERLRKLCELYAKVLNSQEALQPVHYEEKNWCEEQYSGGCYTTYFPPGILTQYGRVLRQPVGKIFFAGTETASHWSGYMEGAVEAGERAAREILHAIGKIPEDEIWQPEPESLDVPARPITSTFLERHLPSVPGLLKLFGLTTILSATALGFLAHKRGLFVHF

Aspergillus flavus [17] = test: Antimicrobial activity against Aspergillus flavus NCIM 524 by broth dilution method; type: functional
Bacillus subtilis [18] = test: Antimicrobial activity against Bacillus subtilis NCIM 2999 by broth dilution method; type: functional
Bacillus subtilis [19] = test: Antimicrobial activity against Bacillus subtilis NCIM 2999 at 10 ug/disc incubated for 24 hrs by agar disc diffusion method; type: functional; conditions: NCIM 2999, 24 h, read-out: IZ
Pseudomonas aeruginosa [20] = test: Antimicrobial activity against Pseudomonas aeruginosa NCIM 5029 at 10 ug/disc incubated for 24 hrs by agar disc diffusion method; type: functional; conditions: NCIM 5029, 24 h, read-out: IZ
Staphylococcus aureus [21] = test: Antimicrobial activity against Staphylococcus aureus NCIM 5021 at 10 ug/disc incubated for 24 hrs by agar disc diffusion method; type: functional; conditions: NCIM 5021, 24 h, read-out: IZ
Escherichia coli [22] = test: Antimicrobial activity against Escherichia coli NCIM 2574 at 10 ug/disc incubated for 24 hrs by agar disc diffusion method; type: functional; conditions: NCIM 2574, 24 h, read-out: IZ

Structure (SMILES)	zone of inhibition at 100 µg/mL (Aspergillus flavus [1]) [mm]	MIC (Escherichia coli [2]) [µg/mL]	zone of inhibition at 100 µg/mL (Staphylococcus aureus [3]) [mm]	IC50 [4] [µg/mL]	MIC (Staphylococcus aureus [5]) [µg/mL]	Time (Mus musculus [6]) [s]	MIC (Pseudomonas aeruginosa [7]) [µg/mL]	zone of inhibition at 100 µg/mL (Candida albicans [8]) [mm]	zone of inhibition at 100 µg/mL (Bacillus subtilis [9]) [mm]	zone of inhibition at 100 µg/mL (Pseudomonas aeruginosa [10]) [mm]	IC50 [11] [µg/mL]	MIC (Candida albicans [12]) [µg/mL]	Time (Mus musculus [14]) [s]	zone of inhibition at 100 µg/mL (Escherichia coli [15]) [mm]	MIC (Aspergillus flavus [17]) [µg/mL]	MIC (Bacillus subtilis [18]) [µg/mL]	other results
COc1cc(/C=C/C(=O)N2CCCCC2)cc2c1OCO2	11	30 (≈ 104 µM)	10	14.9 (≈ 51.5 µM)	24 (≈ 82.9 µM)	78.18	30 (≈ 104 µM)	12.5	13	16	18.2 (≈ 62.9 µM)	28 (≈ 96.8 µM)	32.15	15	30 (≈ 104 µM)	26 (≈ 89.9 µM)	Activity [13]: 17.09 nmol; Activity [16]: 18.01 nmol
COc1cc(/C=C/C(=O)N2CCC(O)CC2)cc2c1OCO2	10.2	> 100	10	8.3 (≈ 27.2 µM)	50 (≈ 164 µM)	76.18	> 100	14	7	11	12.8 (≈ 41.9 µM)	100 (≈ 328 µM)	30.8	11	90 (≈ 295 µM)	50 (≈ 164 µM)	Activity [13]: 14.46 nmol; Activity [16]: 15.72 nmol
COc1cc(/C=C/C(=O)N2CCCC(O)C2)cc2c1OCO2 (centres undefined)	10	> 100	8	13.4 (≈ 43.9 µM)	50 (≈ 164 µM)	84.2	> 100	18	11	12	16.9 (≈ 55.3 µM)	100 (≈ 328 µM)	35.4	7	> 100	62 (≈ 203 µM)	Activity [13]: 16.63 nmol; Activity [16]: 17.33 nmol
COc1cc(/C=C/C(=O)N2C(C)CCCC2C)cc2c1OCO2 (centres undefined)	15	50 (≈ 158 µM)	11	13.8 (≈ 43.5 µM)	28 (≈ 88.2 µM)	77.33	30 (≈ 94.5 µM)	12	12	11	15.8 (≈ 49.8 µM)	25 (≈ 78.8 µM)	43.33	10	25 (≈ 78.8 µM)	30 (≈ 94.5 µM)	
COc1cc(/C=C/C(=O)N2CCC(C)CC2)cc2c1OCO2	12	40 (≈ 132 µM)	12	15.3 (≈ 50.4 µM)	24 (≈ 79.1 µM)	104.9	36 (≈ 119 µM)	10	10	9	19.8 (≈ 65.3 µM)	30 (≈ 98.9 µM)	51.6	10	30 (≈ 98.9 µM)	25 (≈ 82.4 µM)	
COc1cc(/C=C/C(=O)N2CCNCC2)cc2c1OCO2	14	20 (≈ 68.9 µM)	14	20.1 (≈ 69.2 µM)	30 (≈ 103 µM)	178	25 (≈ 86.1 µM)	10	10	13	38.4 (≈ 132 µM)	25 (≈ 86.1 µM)	71	11	15 (≈ 51.7 µM)	50 (≈ 172 µM)	
COc1cc(/C=C/C(=O)N2CCN(C(C)=O)CC2)cc2c1OCO2	10.4	18 (≈ 54.2 µM)	11	23.2 (≈ 69.8 µM)	14 (≈ 42.1 µM)	116.2	18.7 (≈ 56.3 µM)	11	16	14	21.9 (≈ 65.9 µM)	15 (≈ 45.1 µM)	55.83	12	22 (≈ 66.2 µM)	14 (≈ 42.1 µM)	
COc1ccccc1N1CCN(C(=O)/C=C/c2cc(OC)c3c(c2)OCO3)CC1	13.6	20 (≈ 50.4 µM)	14	14.7 (≈ 37.1 µM)	16.4 (≈ 41.4 µM)	124.2	20 (≈ 50.4 µM)	14.1	16	11	19.4 (≈ 48.9 µM)	17 (≈ 42.9 µM)	59.16	9	23 (≈ 58 µM)	15 (≈ 37.8 µM)	
COc1cc(/C=C/C(=O)N2CCN(c3ccccc3)CC2)cc2c1OCO2	11	25 (≈ 68.2 µM)	12	36.9 (≈ 101 µM)	18.3 (≈ 49.9 µM)	143.5	25 (≈ 68.2 µM)	13.7	14	13	55.3 (≈ 151 µM)	25 (≈ 68.2 µM)	66.2	10	40 (≈ 109 µM)	18 (≈ 49.1 µM)	
COc1cc(/C=C/C(=O)N2CCN(c3ccccn3)CC2)cc2c1OCO2	10.9	22 (≈ 59.9 µM)	14	19.3 (≈ 52.5 µM)	15.2 (≈ 41.4 µM)	148.5	20 (≈ 54.4 µM)	11.4	12	17	18.5 (≈ 50.4 µM)	14 (≈ 38.1 µM)	67.6	11	15 (≈ 40.8 µM)	15.5 (≈ 42.2 µM)	
O=C1O[C@H]([C@@H](O)CO)C(O)=C1O [ASCORBIC ACID]				12.6 (≈ 71.5 µM)													
C#CCN(C)CCCOc1ccc(Cl)cc1Cl [CLORGILINE]																	Activity [13]: 17.05 nmol; Activity [16]: 18.16 nmol
CN(C)CCCN1c2ccccc2CCc2ccccc21 [IMIPRAMINE]						79.5							32.17				
CN[C@@H]1[C@H](O[C@H]2[C@H](O[C@H]3[C@H](O)[C@@H](O)[C@H](N=C(N)N)[C@@H](O)[C@@H]3N=C(N)N)O[C@@H](C)[C@]2(O)C=O)O[C@@H](CO)[C@H](O)[C@H]1O [STREPTOMYCIN]		5 (≈ 8.6 µM)			5 (≈ 8.6 µM)		5 (≈ 8.6 µM)									5 (≈ 8.6 µM)	zone of inhibition at 10 µg/disc (Bacillus subtilis [19]): 10.4 mm; zone of inhibition at 10 µg/disc (Pseudomonas aeruginosa [20]): 14 mm; zone of inhibition at 10 µg/disc (Staphylococcus aureus [21]): 11.6 mm; zone of inhibition at 10 µg/disc (Escherichia coli [22]): 14.5 mm

— ChEMBL document CHEMBL2203030, “Synthesis, characterization, antidepressant and antioxidant activity of novel piperamides bearing piperidine and piperazine analogues” (Bioorg Med Chem Lett, 2012)
